# Read-outs that look alike come from different tables or passages of the source.
# Tested on: GKI (PPTG_18934)
# Conditions: pH 8.0, phosphate buffer
SMILES,"Km (read-out: Km / ATP, co-substrate glucose) [µM]","Km (read-out: Km / Glucose, substrate inhibition at glucose >= 1 mM) [µM]"
Nc1ncnc2c1ncn2[C@@H]1O[C@H](COP(=O)(O)OP(=O)(O)OP(=O)(O)O)[C@@H](O)[C@H]1O [ATP],700 ± 50,
OC[C@H]1OC(O)[C@H](O)[C@@H](O)[C@@H]1O (some centres unmarked) [Glucose],,40.5 ± 5
